Converted amounts (≈) assume the structure as drawn. “Also recorded” adds a separate entry of the source. Like-named read-outs stand apart in the source and are kept apart here.
Key:
[1] = test system: Mucor miehei; assay: Plate agar diffusion test, minimal inhibitory concentration against Mucor miehei; type: cell-based; settings: Rhizomucor miehei
Method: Die antibakterielle Wirkung kommt sowohl gegen gram-positive wie gram-negative Bakterien zur Geltung, wie z.B. im Platten-Agardiffusionstest in vitro [10 µl/Testrondelle (6 mm ø)] gezeigt werden kann, wo sie bei verschiedenen pathogenen Keimen eine minimale Hemmkonzentration im Bereiche von 1-200 µg/ml zeigen. Von den gegenüber den neuen Verbindungen empfindlichen gram-positiven Bakterien seien z.B. die folgenden genannt: Bacillus cereus, Bacillus subtilis, Clostridium pasteurianum, Corynebacterium rathayi, von den gram-negativen folgende: Agrobacterium tumefaciens, Erwinia amylovorum, Escherichia coli K 12 wild type, Klebsiella aerogenes, Serratia marcescens 13880, Serratia marcescens 30122.
Die antifungische Wirkung tritt praktisch gegenüber den meisten Pilzen auf. So weist das Antibiotikum Tü 1718 und insbesondere die Verbindungen der Formel (IV) im oben genannten Agardiffusionstest eine minimale Hemmkonzentration im Bereiche von ca. 0,1-200 µg/ml gegenüber sehr vielen pathogenen und nicht pathogenen Pilzen, z.B. gegen Pythium debarianum, Mucor hiemalis+, Mucor hiemalis-, Mucor miehei, Trichophyton mentagrophytes, Botrytis cinerea 157, Aspergillus fumigatus, und mehrere andere. So besitzen z.B. die nachstehend aufgeführten spezifischen Verbindungen die folgenden minimalen Hemmkonzentrationen gegenüber Mucor miehei: • Komponente A1 von Antibiotikum Tü 1718, d.h. (2S,5S)-2-(2-Hydroxyäthyl)-clavam = 10 ug/ml
(§1) Bei der […] kann der Plattendiffusionstest dienen, wobei vorzugsweise folgende Testkeime verwendet werden: Clostridium pasteurianum, Escherichia coli und Mucor miehei. Die minimale Hemmkonzentration der Hauptkomponente des Antibiotikums in µg/m1 gegenüber den eben genannten Mikroorganismen ist wie folgt: • Clostridium pasteurianum 50

[2] = Solubility in solvents and water; type: physicochemical
Text: (§2) Als Aufbewahrungsmittel eignet sich Chloroform. […] Es ist somit möglich, die Verbindungen in Form all jener pharmazeutischen Präparate zu verwenden, die Wasser enthalten, wie insbesondere von wässrigen Lösungen bei der parenteralen oder oralen Applikation, oder Cremen oder Salben oder Tinkturen bei der topischen Gabe.
(§3) Als Aufbewahrungsmittel eignet sich Chloroform. […] Bei der Dünnschichtchromatographie z.B. an Kieselgel-Alufolien kann die Substanz z.B. durch folgende Sprühreagenzien sichtbar gemacht werden: Ehrlich's Reagenz, rot; Vanillin/ ^H2S04, lindgrün; Ninhydrin, gelb mit violettem Rand.

[3] = test system: Tumorzellen der Zellinie NS-1; assay: Tumour-inhibiting effect on tumour cells of cell line NS-1; type: cell-based, Maus; settings: Zellinie NS-1, compared with Actinomycin C
Text: Das neue Antibiotikum, seine Extrakte und die neuen Verbindungen der Formel (IV) besitzen zudem auch eine tumorhemmende Wirkung, wie in Versuchen an Tumorzellen der Zellinie NS-1, einer Variante der Zelline P 3, die aus Mineralöl-induzierten Plastocytomen der Maus stammen, gezeigt werden kann.

[4] = test system: Clostridium pasteurianum; assay: Plate diffusion test, minimal inhibitory concentration against Clostridium pasteurianum; type: cell-based; settings: Plattendiffusionstest, read-out: minimale Hemmkonzentration
Text: as §1

[5] = Stability solvent-free and in aqueous solution; type: physicochemical
Text: as §2, §3

[6] = Agardiffusionstest, read-out: minimale Hemmkonzentration gegenüber Mucor miehei

Structure (SMILES)	MIC [1, 6] [µg/mL]	Löslichkeit in Chloroform, Aceton, Methanol ([2]; Chloroform, Aceton, Methanol)	Löslichkeit in Wasser ([2]; Wasser)	tumorhemmende Wirkung [3]	MIC [4] [µg/mL]	Stabilität in lösungsmittelfreiem Zustand ([5]; lösungsmittelfrei)	Stabilität in wässerigen Lösungen ([5]; wässerige Lösungen, pH 5-7)	MIC ([1]; Plattendiffusionstest, Mucor miehei, read-out: minimale Hemmkonzentration) [µg/mL]
O=C(COc1ccccc1)OCC[C@H]1CN2C(=O)C[C@@H]2O1 [(2S,5S)-2-(2-Phenoxyacetoxyäthyl)-clavam]	0.1 (≈ 0.343 µM)	–	–	–	–	–	–	–
O=C1C[C@@H]2O[C@@H](CCO)CN12 [Komponente A1 von Antibiotikum Tü 1718, (2S,5S)-2-(2-Hydroxyäthyl)-clavam]	10 (≈ 63.6 µM)	sehr gut; also recorded: gut löslich	weniger gut löslich; also recorded: mässig löslich	ca. die Hälfte der tumorhemmenden Wirkung von Actinomycin C	50 (≈ 318 µM)	beschränkt stabil	einigermassen gute Stabilität	10 to 20 (≈ 63.6 to 127 µM)

Source: EP0057664A2, “Clavam derivatives” (CIBA-GEIGY AG, priority 1981, dated 1982)
